{
  "source": "paper PMC5656322",
  "about": "“BAK1 is involved in AtRALF1-induced inhibition of root cell expansion” (PLoS Genetics, 2017)",
  "key": {"[1]": {"tested_on": "AtPRP3, AtHRGP2, CPD and DWF4 genes", "experiment": "Expression of hormone-responsive genes (RT-PCR, qRT-PCR)", "type": "in vivo, Arabidopsis thaliana", "details": "bak1-1, bak1-3, bak1-4 mutants, 1 μM, 1 h", "method": "Arabidopsis plants were grown for 10 days in vertical plates and then treated in liquid medium containing 1 μM AtRALF1 for 1 h at room temperature. Control plants were incubated under identical conditions in a peptide-free medium. The total RNA was isolated from the roots of Arabidopsis plants using TRIzol reagent according to the manufacturer’s instructions (Life Technologies). The cDNA was synthesized using the ImProm-II Reverse Transcription System (Promega) and 1 μg of RNA. An aliquot of cDNA (1.5 μl) was used as the template in the PCR reaction, which was performed for 29 cycles, unless indicated otherwise, using gene-specific primers (S1 Table). The glyceraldehyde 3-phosphate dehydrogenase (GAPDH) gene was used as an internal control. All experiments were repeated at least three times with independent biological replicates. The data shown are from one representative experiment.\nThe qRT-PCR analysis was performed using 10-fold-diluted cDNA, Maxima SYBR Green Rox/qPCR Master Mix (Thermo Scientific) and a StepOne Real-Time PCR System (Applied Biosystems). The glyceraldehyde 3-phosphate dehydrogenase (GAPDH) gene was used as an internal control. […] The threshold cycle (CT) was determined by the instrument, and the ΔΔCT method was used to calculate the fold change in each gene. […] Three replicates were analyzed for each biological sample, and two biological samples were analyzed. […]"}, "[2]": {"tested_on": "BAK1", "experiment": "BAK1 phosphorylation assay, anti-phosphothreonine", "type": "in vivo, Arabidopsis thaliana", "details": "20 min", "method": "Transgenic plants pBAK1:BAK1-6xHA were grown in vertical plates for 10–15 days. The plants were treated with 0.1 μM BL, 2 μM RALF1(9–49), 1 μM, 2 μM or 10 μM AtRALF1 for 20 min. The roots were isolated, and the microsomal fractions were obtained as described above. The microsomal fractions were incubated with anti-HA beads (EZview Red Anti-HA Affinity Gel, Sigma) for 2 h at 4 °C to immunoprecipitate the BAK1 protein. The unbound materials were removed by washing 3 times. Proteins were separated by SDS/PAGE and further analyzed by protein blotting using anti-HA (Thermo Scientific), or anti-phosphothreonine (Novus Biologicals), or anti-phosphoserine (Novus Biologicals) antibodies."}, "[3]": {"tested_on": "Arabidopsis seedlings, primary root", "details": "ref [10], cited from earlier work", "description": "FERONIA (FER), a receptor-like kinase with an extracellular malectin-like domain, has been identified as the receptor of the root-specific isoform AtRALF1 [10]. LORELEI (LRE) and LRE-like GPI-AP1 (LLG1) are two glycosylphosphatidylinositol-anchored proteins found in ovules and vegetative tissues, respectively, that physically interact with FER and are required for FER delivery to the cell membrane and FER signaling. […] In a search for putative genetic components that might be shared by both the AtRALF1 and BR signaling pathways, we tested mutants lacking different components of the BR signaling pathway in root growth assays with inhibitory concentrations of the AtRALF1 peptide. […] A previous study in which 18 receptor-like proteins were tested in root g ..."}, "[4]": {"tested_on": "cytosolic Ca^2+ in Arabidopsis seedlings", "details": "from extra- and intracellular stores; ref [1],[11]; cited from earlier work"}},
  "note": "Where no end group is shown, it is not given here.",
  "data": [
    {"substance": "AtRALF1: root-specific RALF isoform in Arabidopsis; recombinant peptide hormone produced in E. coli (ATTKYISYQSLKRNSVPCSRRGASYYNCQNGAQANPYSRGCSKIARCRS; ends and bridges not checked; cysteine pairing not given here)", "values": [
      {"measurement": "up-regulation of AtRALF1-inducible genes", "setting": "[1]", "result": "None of the AtRALF1-inducible genes were up-regulated"},
      {"measurement": "further increase of BAK1 Thr phosphorylation", "setting": "[2]; 10 μM", "result": "did not result in further increases in phosphorylation"},
      {"measurement": "upper concentration of dose-dependent BAK1 Thr phosphorylation", "setting": "[2]; pBAK1:BAK1-HA roots", "result": "up to 2 μM"},
      {"measurement": "BAK1 phosphorylation in threonine residues", "setting": "[2]; pBAK1:BAK1-HA roots, AtRALF1 1, 2, 10 μM, BL 0.1 μM", "result": "increase in BAK1 phosphorylation in the threonine residues similar to the increase resulting from the treatment of the seedlings with BL"},
      {"measurement": "root growth inhibition, sensitivity of fer4", "setting": "[3]; FERONIA mutant fer4, low concentrations", "result": "insensitive to low concentrations of the AtRALF1 peptide"},
      {"measurement": "root growth inhibition", "setting": "[3]; bak1-4 mutant, 1 μM", "result": "the roots of the bak1-4 mutant were inhibited by the peptide"},
      {"measurement": "cytoplasmic Ca^2+", "setting": "[4]", "result": "rapid increase in cytoplasmic Ca^2+"}
    ]}
  ]
}
